The assay has as its system Dengue-2 (Strain New Guinea C). The experiment in a line: Viral yield assay against Dengue-2 in Vero cells. It counts as cell-based, Dengue virus. The settings on record: Dengue virus. Put shortly: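 Infect Vero cells with virus (MOI 0.1), add compound or DMSO, incubate at 37° C, collect progeny at 48 hours post infection, then titrate on Vero cells to obtain EC50.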
[1] abbreviates: DENV2, viral yield assay, Vero cells, MOI 0.1, 48 hours post infection, read-out: Activity (EC50 in μM) DENV-2.
Setting [2] is: DENV2, Vero, 48 h, read-out: Activity (EC50 in μM) DENV-2.
The mark [3] stands for this setting: Vero, 48 h, read-out: Activity (EC50 class) against Dengue-2 Virus in Vero cells.
The mark [4] stands for this setting: Vero cells, MOI 0.1, harvested 48 hours post infection, read-out: Activity (EC50 class) against Dengue-2 Virus in Vero cells.

Where two headings read alike, the source gives them in different places.

As for `COc1cccc(-c2ccc3c(N)c(C(=O)Nc4cccc(Cl)c4Cl)sc3n2)c1` [Compound 563, 3-amino-N-(2,3-dichlorophenyl)-6-(3-methoxypnenyl)thieno[2,3-b]pyridine-2-carboxamide], the concentration for a half-maximal effect (EC50) (usually the concentration that produces a half-maximal response) under setting [1] is under 5 µM.
For `COc1ccc(NC(=O)c2sc3nc(-c4cccs4)ccc3c2N)cc1OC` [Compound 444, 3-amino-N-(3,4-dimethoxyphenyl)-6-(2-thienyl)thieno[2,3-b]pyridine-2-carboxamide], under setting [2], the EC50 was under 5 µM.
Turning to `CN(C)c1ccnc2sc(C(N)=O)c(N)c12` [Compound 166, 3-Amino-4-dimethylamino-thieno[2,3-b]pyridine-2-carboxylic acid amide], the EC50 under setting [3] is over 25 µM.
As for `Nc1c(C(=O)NC2CCCCC2)sc2nc3c(cc12)CCCCC3` [Compound 281, 3-amino-N-cyclohexyl-6,7,8,9-tetrahydro-5H-cyclohepta[b]thieno [3,2-e]pyridine-2-carboxamide], under setting [1], the half-maximal effective concentration (EC50) is 5 to 25 µM.
For `Cc1cc(C(F)(F)F)c2c(N)c(C(=O)Nc3ccc(I)cc3C)sc2n1` [Compound 123, 3-Amino-6-methyl-4-trifluoromethyl-thieno[2,3-b]pyridine-2-carboxylic acid (4-iodo-2-methyl-phenyl)-amide], the EC50 under setting [4] was over 25 µM.
Take `Nc1c(C(=O)Nc2ccncc2)sc2nc(-c3cccc(C(F)(F)F)c3)ccc12` [Compound 653, 3-amino-N-(4-pyridyl)-6-[3-(trifluoromethyl)phenyl]thieno[2,3-b] pyridine-2-carboxamide]: under setting [1], the concentration giving a half-maximal response (EC50) was under 5 µM.
In the case of `Cc1cc(C)c2c(n1)sc1c(=O)n(-c3cccc(C(F)(F)F)c3)cnc12` [Compound 198, 7,9-Dimethyl-3-(3-trifluoromethyl-phenyl)-3H-pyrido[3′,2′:4,5]thieno[3,2-d]pyrimidin-4-one], under setting [4], the EC50 is over 25 µM.
Still for that read-out and setting: the result for `COCc1cc(C)nc2sc(C(=O)Nc3cccc4ccccc34)c(N)c12` [Compound 74, 3-Amino-4-methoxymethyl-6-methyl-thieno[2,3-b]pyridine-2-carboxylic acid naphthalen-1-ylamide] reads 5 to 25 µM.
In the case of `COc1ccnc2sc(C(=O)Nc3nnc(-c4ccccc4)s3)c(N)c12` [Compound 287, 3-amino-4-methoxy-N-(5-phenyl-1,3,4-thiadiazol-2-yl)thieno[2,3-b]pyridine-2-carboxamide], the half-maximal effective concentration (EC50) under setting [1] lay within 5 to 25 µM.
Turning to `Cc1cc(NC(=O)c2sc3nc(C)c(C)c(C)c3c2N)no1` [Compound 255, 3-Amino-4,5,6-trimethyl-thieno[2,3-b]pyridine-2-carboxylic acid (5-methyl-isoxazol-3-yl)-amide], the concentration giving a half-maximal response (EC50) under setting [4] was over 25 µM.
As for `Nc1c(C(=O)Nc2ccccc2F)sc2nc3c(cc12)CCC3` [Compound 180, 3-Amino-6,7-dihydro-5H-cyclopenta[b]thieno[3,2-e]pyridine-2-carboxylic acid (2-fluoro-phenyl)-amide], the EC50 under setting [3] was over 25 µM.
In the case of `COc1ccc(-c2ccc3c(N)c(C(=O)Nc4cccc(Cl)c4C)sc3n2)cc1OC` [Compound 573, 3-amino-N-(3-chloro-2-methyl-phenyl)-6-(3,4-dimethoxyphenyl)thieno[2,3-b] pyridine-2-carboxamide], the concentration giving a half-maximal response (EC50) under setting [1] was under 5 µM.
For `NC(=O)c1sc2nc3c(c(-c4ccco4)c2c1N)CCCC3` [Compound 11, 3-Amino-4-furan-2-yl-5,6,7,8-tetrahydro-thieno[2,3-b]quinoline-2-carboxylic acid amide], the half-maximal effective concentration (EC50) under setting [4] was under 5 µM.
`COCc1cc(C)nc2sc(C(=O)N(c3ccccc3)c3ccccc3)c(N)c12` [Compound 140, 3-Amino-4-methoxymethyl-6-methyl-thieno[2,3-b]pyridine-2-carboxylic acid diphenylamide]: the 50% effective concentration (EC50) under setting [3] was over 25 µM.
Turning to `COCc1cc(C)nc2sc(C(=O)NC3CCCCC3)c(N)c12` [Compound 176, 3-Amino-4-methoxymethyl-6-methyl-thieno[2,3-b]pyridine-2-carboxylic acid cyclohexylamide], the EC50 under setting [3] is over 25 µM.
On to `COc1ccc(C)cc1NC(=O)c1sc2nc(C)cc(C)c2c1N` [Compound 259, 3-Amino-4,6-dimethyl-thieno[2,3-b]pyridine-2-carboxylic acid (2-methoxy-5-methyl-phenyl)-amide], for which, under setting [4], the EC50 is over 25 µM.
As for `COc1cccc(-c2ccc3c(N)c(C(=O)Nc4cccc(F)c4C)sc3n2)c1` [Compound 515, 3-amino-N-(3-fluoro-2-methyl-phenyl)-6-(3-methoxyphenyl)thieno[2,3-b] pyridine-2-carboxamide], under setting [1], the EC50 is under 5 µM.
On the same count and under the same terms, the result for `COc1cccc(-c2ccc3c(N)c(C(=O)Nc4ccc(F)c(Cl)c4)sc3n2)c1` [Compound 526, 3-amino-N-(3-chloro-4-fluoro-phenyl)-6-(3-methoxyphenyl)thieno[2,3-b] pyridine-2-carboxamide] reads under 5 µM; that for `Nc1c(C(=O)Nc2cccc(Br)c2)sc2nc(-c3ccncc3)ccc12` [Compound 481, 3-amino-N-(3-bromophenyl)-6-(4-pyridyl)thieno[2,3-b]pyridine-2-carboxamide], 5 to 25 µM.
On the same count and under the same terms, the result for `Cc1ccc(NC(=S)NNC(=O)c2sc3nc(-c4cccs4)cc(C(F)(F)F)c3c2C)cc1` [Compound 410, 1-[[3-methyl-6-(2-thienyl)-4-(trifluoromethyl)thieno[2,3-b]pyridine-2-carbonyl]amino]-3-(p-tolyl)thiourea] reads under 5 µM.
Consider `CC1(C)Cc2nc3sc4c(=O)n(Cc5ccc(Cl)cc5Cl)cnc4c3cc2CO1` [Compound 252, 2-(2,4-Dichloro-benzyl)-8,8-dimethyl-8,9-dihydro-2H,6H-7-oxa-11-thia-2,4,10-triaza-benzo[b]fluoren-1-one], for which, under setting [4], the 50% effective concentration (EC50) was over 25 µM.
In the case of `Cc1cc(C)c2c(N)c(C(=O)Nc3ccc(F)c(Cl)c3)sc2n1` [Compound 200, 3-Amino-4,6-dimethyl-thieno[2,3-b]pyridine-2-carboxylic acid (3-chloro-4-fluoro-phenyl)-amide], the EC50 under setting [3] is over 25 µM.
Turning to `O=c1[nH]cnc2c1sc1nc(-c3cccs3)ccc12` [Compound 412, 7-(thiophen-2-yl)pyrido[3′,2′:4,5]thieno [3,2-d]pyrimidin-4(3H)-one], under setting [1], the EC50 lay within 5 to 25 µM.
Same read-out and setting: the result for `CCOc1ccccc1NC(=O)c1sc2nc(-c3ccc(OC)c(OC)c3)ccc2c1N` [Compound 509, 3-amino-6-(3,4-dimethoxyphenyl)-N-(2-ethoxyphenyl)thieno[2,3-b]pyridine-2-carboxamide] reads under 5 µM.
Turning to `Cc1ccc2c(N)c(C(=O)Nc3ccccc3C(F)(F)F)sc2n1` [Compound 418, 3-amino-6-methyl-N-[2-(trifluoromethyl)phenyl]thieno[2,3-b] pyridine-2-carboxamide], the half-maximal effective concentration (EC50) under setting [2] fell in the range of 5 to 25 µM.
In the case of `CN1CCc2nc3sc(C(=O)Nc4c(F)cccc4F)c(N)c3cc2C1` [Compound 277, 3-Amino-6-methyl-5,6,7,8-tetrahydro-thieno[2,3-b][1,6]naphthyridine-2-carboxylic acid (2,6-difluoro-phenyl)-amide], under setting [4], the half-maximal effective concentration (EC50) is over 25 µM.
Same read-out and setting: the result for `CN1CCc2nc3sc(C(=O)Nc4ccccc4)c(N)c3c(-c3cccs3)c2C1` [Compound 34, 3-Amino-6-methyl-4-thiophen-2-yl-5,6,7,8-tetrahydro-thieno[2,3-b][1,6]naphthyridine-2-carboxylic acid phenylamide] reads under 5 µM.
For `Nc1c(C(=O)Nc2nccs2)sc2nc3c(c(-c4cccs4)c12)CCCCC3` [Compound 223, 3-Amino-4-thiophen-2-yl-6,7,8,9-tetrahydro-5H-1-thia-10-aza-cyclohepta[f]indene-2-carboxylic acid thiazol-2-ylamide], the EC50 under setting [3] was over 25 µM.
Take `CCOC(=O)c1cc(NC(=O)c2sc3nc(C)cc(COC)c3c2N)ccc1Cl` [Compound 240, 5-[(3-Amino-4-methoxymethyl-6-methyl-thieno[2,3-b]pyridine-2-carbonyl)-amino]-2-chloro-benzoic acid ethyl ester]: under setting [4], the EC50 is over 25 µM.
Still for that read-out and setting: with `Nc1c(C(=O)N(c2ccccc2)c2ccccc2)sc2nc3c(cc12)CCC3` [Compound 207, 3-Amino-6,7-dihydro-5H-cyclopenta[b]thieno[3,2-e]pyridine-2-carboxylic acid diphenylamide] the figure was over 25 µM; with `Nc1c(C(=O)Nc2ccc([N+](=O)[O-])cc2)sc2nc(-c3cccs3)cc(C(F)(F)F)c12` [Compound 221, 3-Amino-6-thiophen-2-yl-4-trifluoromethyl-thieno[2,3-b]pyridine-2-carboxylic acid (4-nitro-phenyl)-amide], over 25 µM; with `CCc1nnc(NC(=O)c2sc3nc(-c4ccccc4)cc(C(F)(F)F)c3c2N)s1` [Compound 194, 3-Amino-6-phenyl-4-trifluoromethyl-thieno[2,3-b]pyridine-2-carboxylic acid (5-ethyl-[1,3,4]thiadiazol-2-yl)-amide], over 25 µM.
In the case of `CCSc1nc2ccc(NC(=O)c3sc4nc(-c5cccc(OC)c5)ccc4c3N)cc2s1` [Compound 567, 3-amino-N-(2-ethylsulfanyl-1,3-benzo-thiazol-6-yl)-6-(3-methoxphenyl)thieno [2,3-b]pyridine-2-carboxamide], the EC50 under setting [1] was under 5 µM.
Turning to `Cc1cc(C)c2c(N)c(C(=O)NCc3ccco3)sc2n1` [Compound 258, 3-Amino-4,6-dimethyl-thieno[2,3-b]pyridine-2-carboxylic acid (furan-2-ylmethyl)-amide], the EC50 under setting [3] was over 25 µM.
`Nc1c(C(=O)Nc2ccccc2Br)sc2ncccc12` [Compound 422, 3-amino-N-(2-bromophenyl)thieno[2,3-b] pyridine-2-carboxamide]: the EC50 under setting [1] is under 5 µM.
For `CN1CCc2nc3sc(C(=O)Nc4ccc(C(F)(F)F)cc4)c(N)c3cc2C1` [Compound 42, 3-Amino-6-methyl-5,6,7,8-tetrahydro-thieno[2,3-b][1,6]naphthyridine-2-carboxylic acid (4-trifluoromethyl-phenyl)-amide], the concentration for a half-maximal effect (EC50) under setting [4] was under 5 µM.

The values above are taken from patent US20170121344A1 (Siga Technologies, Inc., priority 2009, published 2017).
